According to patent publication US20120264735A1 (priority 2009, published 2012):

Biological target: T1, c-Met kinase (recombinant c-Met) (Homo sapiens, UniProt P08581)
T1 construct: 0.27 nM recombinant c-Met
Experiment: In vitro kinase assay I (homogeneous time-resolved fluorescence tyrosine kinase assay)
Type: biochemical
Summary of the method: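 Biotinylated peptide (0.5 μM) phosphorylated by 0.2 nM recombinant c-Met with 50 μM MgATP, 60 min at room temperature, pH 7.4, 5% DMSO. EDTA stop; HTRF read with Eu-anti-phosphotyrosine antibody and streptavidin-APC. IC50 from 4-parameter logistic fit.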

T1 sequence (P08581 25-1390): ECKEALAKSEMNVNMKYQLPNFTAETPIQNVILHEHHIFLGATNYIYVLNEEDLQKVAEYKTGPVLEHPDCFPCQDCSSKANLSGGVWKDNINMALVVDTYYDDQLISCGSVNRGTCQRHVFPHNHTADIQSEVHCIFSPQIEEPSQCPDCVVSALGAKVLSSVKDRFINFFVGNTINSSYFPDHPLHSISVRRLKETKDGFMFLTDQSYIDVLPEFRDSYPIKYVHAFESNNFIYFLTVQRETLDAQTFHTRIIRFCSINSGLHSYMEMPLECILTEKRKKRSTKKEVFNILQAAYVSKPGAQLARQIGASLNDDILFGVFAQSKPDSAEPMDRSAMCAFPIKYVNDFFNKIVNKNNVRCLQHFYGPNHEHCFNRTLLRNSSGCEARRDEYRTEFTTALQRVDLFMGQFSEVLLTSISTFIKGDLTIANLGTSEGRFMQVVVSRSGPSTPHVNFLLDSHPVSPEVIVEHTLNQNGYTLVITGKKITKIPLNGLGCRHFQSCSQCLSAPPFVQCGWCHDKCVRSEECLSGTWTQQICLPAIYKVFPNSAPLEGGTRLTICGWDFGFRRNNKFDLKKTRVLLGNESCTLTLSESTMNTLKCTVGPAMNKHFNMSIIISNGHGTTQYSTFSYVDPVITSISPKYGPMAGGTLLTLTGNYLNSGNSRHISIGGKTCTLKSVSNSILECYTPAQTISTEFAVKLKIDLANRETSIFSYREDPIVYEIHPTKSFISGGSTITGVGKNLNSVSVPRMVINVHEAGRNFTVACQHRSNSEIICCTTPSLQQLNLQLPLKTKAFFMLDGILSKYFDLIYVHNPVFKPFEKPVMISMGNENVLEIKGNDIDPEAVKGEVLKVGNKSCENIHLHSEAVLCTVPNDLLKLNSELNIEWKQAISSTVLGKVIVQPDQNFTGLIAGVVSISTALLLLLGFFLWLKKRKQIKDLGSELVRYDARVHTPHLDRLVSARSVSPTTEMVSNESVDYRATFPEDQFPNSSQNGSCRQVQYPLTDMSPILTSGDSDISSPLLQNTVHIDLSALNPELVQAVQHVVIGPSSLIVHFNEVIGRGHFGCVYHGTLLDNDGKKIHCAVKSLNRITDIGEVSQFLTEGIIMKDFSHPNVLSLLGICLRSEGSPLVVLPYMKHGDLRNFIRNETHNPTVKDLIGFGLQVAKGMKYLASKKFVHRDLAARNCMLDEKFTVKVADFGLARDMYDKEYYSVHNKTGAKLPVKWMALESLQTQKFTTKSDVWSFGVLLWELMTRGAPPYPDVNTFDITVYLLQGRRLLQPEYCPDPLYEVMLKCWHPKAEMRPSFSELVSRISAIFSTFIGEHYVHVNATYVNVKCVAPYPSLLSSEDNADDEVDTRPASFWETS

**Q.** Which IC50 does the source give for `O=C(Nc1cccc(Cc2nn(-c3cc(F)c(F)c(F)c3)ccc2=O)c1)OCCN1CCS(=O)(=O)CC1` [Example 515, 2-(1,1-dioxidothio-morpholin-4-yl)ethyl (3-{[4-oxo-1-(3,4,5-trifluorophenyl)-1,4-dihydropyridazin-3-yl]methyl}phenyl)carbamate] here?
**A.** Its IC50 is under 100 nM.

**Q.** `CCOCC(O)COc1cnc(-c2cccc(Cc3nn(-c4cnn(C)c4)ccc3=O)c2)nc1` (racemic) [Example 370, rac-3-{3-[5-(3-ethoxy-2-hydroxypropoxy)pyrimidin-2-yl]benzyl}-1-(1-methyl-1H-pyrazol-4-yl)pyridazin-4(1H)-one] was tested. Which IC50 did it give?
**A.** Its IC50 is under 100 nM.

**Q.** With `Cn1cc(-n2ccc(=O)c(Cc3cccc(NC(=O)OCC4CCCO4)c3)n2)cn1` (racemic) [Example 562, rac-tetrahydrofuran-2-ylmethyl (3-{[1-(1-methyl-1H-pyrazol-4-yl)-4-oxo-1,4-dihydropyridazin-3-yl]methyl}phenyl)carbamate] as the molecule, how does the IC50 read?
**A.** The IC50 was under 100 nM.

**Q.** For `CC(C)COC(=O)Nc1cccc(Cc2nn(-c3cn[nH]c3)ccc2=O)c1` [Example 197, isobutyl (3-{[4-oxo-1-(1H-pyrazol-4-yl)-1,4-dihydropyridazin-3-yl]methyl}phenyl)carbamate], which IC50 is on record?
**A.** Its IC50 is under 100 nM.

**Q.** Which IC50 does the source give for `COCCOCCOC(=O)Nc1cccc(Cc2nn(-c3cc(F)c(F)c(F)c3)ccc2=O)c1` [Example 599, 2-(2-methoxyethoxy)ethyl (3-{[4-oxo-1-(3,4,5-trifluorophenyl)-1,4-dihydropyridazin-3-yl]methyl}phenyl)carbamate] here?
**A.** Its IC50 is under 100 nM.

**Q.** How did the IC50 turn out when `Cn1cc(-n2ccc(=O)c(Cc3cccc(-c4ncc(C(=O)NCC5CCOC5)cn4)c3)n2)cn1` (racemic) [Example 475, rac-2-(3-{[1-(1-methyl-1H-pyrazol-4-yl) 4-oxo-1,4-dihydro-pyridazin-3-yl]methyl}phenyl)-N-(tetrahydro-furan-3-ylmethyl)pyrimidine-5-carboxamide] was run?
**A.** The IC50 was under 100 nM.

**Q.** Which IC50 does the source give for `Cn1cc(-n2ccc(=O)c(Cc3cccc(-c4ncc(C(=O)NCC5CCCO5)cn4)c3)n2)cn1` (racemic) [Example 483, rac-2-(3-{[1-(1-methyl-1H-pyrazol-4-yl)-4-oxo-1,4-dihydro-pyridazin-3-yl]methyl}phenyl)-N-(tetrahydro-furan-2-ylmethyl)pyrimidine-5-carboxamide] here?
**A.** Its IC50 is under 100 nM.

**Q.** With `CCCOC(=O)Nc1cccc(Cc2nn(-c3cccc(C#N)c3)ccc2=O)c1` [Example 580, propyl (3-{[1-(3-cyanophenyl)-4-oxo-1,4-dihydropyridazin-3-yl]methyl}phenyl)carbamate] as the molecule, how does the IC50 read?
**A.** The IC50 was under 100 nM.

**Q.** Which IC50 does the source give for `CCn1cc(-n2ccc(=O)c(Cc3cccc(-c4ncn(CC)n4)c3)n2)cn1` [Example 86, 1-(1-ethyl-1H-pyrazol-4-yl)-3-[3-(1-ethyl-1H-1,2,4-triazol-3-yl)benzyl]pyridazin-4(1H)-one] here?
**A.** The IC50 was under 100 nM.

**Q.** For `COCCOc1cnc(-c2cccc(Cc3nn(-c4ccc(C#N)c(F)c4)ccc3=O)c2)nc1` [Example 144, 2-fluoro-4-[3-{3-[5-(2-methoxyethoxy)pyrimidin-2-yl]benzyl}-4-oxopyridazin-1(4H)-yl]benzonitrile], which IC50 is on record?
**A.** The IC50 was under 100 nM.

**Q.** Which IC50 does the source give for `COc1cnc(-c2cccc(Cc3nn(-c4cc(F)c(F)c(F)c4)ccc3=O)c2)nc1` [Example 9, 3-[3-(5-methoxypyrimidin-2-yl)benzyl]-1-(3,4,5-trifluorophenyl)pyridazin-4(1H)-one] here?
**A.** Its IC50 is under 100 nM.

**Q.** How did the IC50 turn out when `CCCCOC(=O)Nc1cccc(Cc2nn(-c3cnn(C)c3)ccc2=O)c1` [Example 500, Butyl (3-{[1-(1-methyl-1H-pyrazol-4-yl)-4-oxo-1,4-dihydropyridazin-3-yl]methyl}phenyl)carbamate] was run?
**A.** Its IC50 is under 100 nM.

**Q.** With `Cn1cnc(-c2cccc(Cc3nn(-c4ccccc4)ccc3=O)c2)n1` [Example 670, 3-[3-(1-Methyl-1H-1,2,4-triazol-3-yl)benzyl]-1-phenylpyridazin-4(1H)-one] as the molecule, how does the IC50 read?
**A.** The IC50 was 100 to 1000 nM.

**Q.** Which IC50 does the source give for `Cn1cc(-n2ccc(=O)c(Cc3cccc(-c4ncc(C(=O)NCC(F)(F)F)cn4)c3)n2)cn1` [Example 481, 2-(3-{[1-(1-methyl-1H-pyrazol-4-yl)-4-oxo-1,4-dihydro-pyridazin-3-yl]methyl}phenyl)-N-(2,2,2-trifluoroethyl)pyrimidine-5-carboxamide] here?
**A.** The IC50 was under 100 nM.

**Q.** Which IC50 does the source give for `CC(C)COC(=O)Nc1cccc(Cc2nn(-c3cnn(CCCC(=O)NCC(C)O)c3)ccc2=O)c1` (racemic) [Example 706, rac-2-methylpropyl (3-{[1-(1-{4-[(2-hydroxypropyl)amino]-4-oxobutyl}-1H-pyrazol-4-yl)-4-oxo-1,4-dihydropyridazin-3-yl]methyl}phenyl) carbamate] here?
**A.** Its IC50 is 100 to 1000 nM.

**Q.** For `CCOc1cnc(-c2cccc(Cc3nn(-c4cc(F)cc(C#N)c4)ccc3=O)c2)nc1` [Example 133, 3-{3-[3-(5-ethoxypyrimidin-2-yl)benzyl]-4-oxopyridazin-1(4H)-yl}-5-fluorobenzonitrile], which IC50 is on record?
**A.** The IC50 was under 100 nM.

**Q.** Which IC50 does the source give for `N#Cc1cccc(-n2ccc(=O)c(Cc3cccc(NC(=O)OCC4CNC4)c3)n2)c1` [Example 627, azetidin-3-ylmethyl (3-{[1-(3-cyanophenyl)-4-oxo-1,4-dihydropyridazin-3-yl]methyl}phenyl)carbamate] here?
**A.** The IC50 was under 100 nM.

**Q.** Which IC50 does the source give for `Cn1cc(-n2ccc(=O)c(Cc3cccc(-c4ncc(C(=O)NCCN5CCOCC5)cn4)c3)n2)cn1` [Example 477, 2-(3-{[1-(1-methyl-1H-pyrazol-4-yl)-4-oxo-1,4-dihydro-pyridazin-3-yl]methyl}phenyl)-N-(2-morpholin-4-ylethyl)pyrimidine-5-carboxamide] here?
**A.** The IC50 was under 100 nM.

**Q.** With `CCn1cc(-n2ccc(=O)c(C(C)c3cccc(-c4ncc(O)cn4)c3)n2)cn1` (single isomer, unassigned) [Example 258, 1-(1-ethyl-1H-pyrazol-4-yl)-3-{(1R or S)-1-[3-(5-hydroxypyrimidin-2-yl)phenyl]ethyl}pyridazin-4(1H)-one] as the molecule, how does the IC50 read?
**A.** Its IC50 is under 100 nM.

**Q.** How did the IC50 turn out when `Cn1cc(-n2ccc(=O)c(Cc3cccc(NC(=O)OCC4CCCCC4)c3)n2)cn1` [Example 540, cyclohexylmethyl (3-{[1-(1-methyl-1H-pyrazol-4-yl)-4-oxo-1,4-dihydropyridazin-3-yl]methyl}phenyl)carbamate] was run?
**A.** The IC50 was under 100 nM.

**Q.** How did the IC50 turn out when `CCn1cc(-n2ccc(=O)c(C(C)c3cccc(-c4ncc(OCC5CCNCC5)cn4)c3)n2)cn1` (single isomer, unassigned) [Example 339, 1-(1-ethyl-1H-pyrazol-4-yl)-3-((1R or S)-1-{3-[5-(piperidin-4-ylmethoxy)pyrimidin-2-yl]phenyl}ethyl)pyridazin-4(1H)-one] was run?
**A.** Its IC50 is under 100 nM.

**Q.** For `N#Cc1cccc(-n2ccc(=O)c(Cc3cccc(NC(=O)OCCN4CCOCC4=O)c3)n2)c1` [Example 584, 2-(3-oxomorpholin-4-yl)ethyl (3-{[1-(3-cyanophenyl)-4-oxo-1,4-dihydropyridazin-3-yl]methyl}phenyl)carbamate], which IC50 is on record?
**A.** Its IC50 is under 100 nM.

**Q.** With `CCOc1cnc(-c2cccc(Cc3nn(-c4cnn(C)c4)ccc3=O)c2)nc1` [Example 3, 3-[3-(5-Ethoxypyrimidin-2-yl)benzyl]-1-(1-methyl-1H-pyrazol-4-yl)pyridazin-4(1H)-one] as the molecule, how does the IC50 read?
**A.** Its IC50 is under 100 nM.

**Q.** For `COc1cnc(-c2cccc(Cc3nn(-c4cc(F)cc(C#N)c4)ccc3=O)c2)nc1` [Example 128, 3-fluoro-5-{3-[3-(5-methoxypyrimidin-2-yl)benzyl]-4-oxopyridazin-1(4H)-yl}benzonitrile], which IC50 is on record?
**A.** Its IC50 is under 100 nM.

**Q.** Which IC50 does the source give for `CCOc1cnc(-c2cccc(C(C)c3nn(-c4cnn(CC)c4)ccc3=O)c2)nc1` (single isomer, unassigned) [Example 246, 3-{(1R or S)-1-[3-(5-ethoxypyrimidin-2-yl)phenyl]ethyl}-1-(1-ethyl-1H-pyrazol-4-yl)pyridazin-4(1H)-one] here?
**A.** The IC50 was under 100 nM.

**Q.** How did the IC50 turn out when `CCOc1cnc(-c2cccc(C(C)c3nn(-c4cnn(CCO)c4)ccc3=O)c2)nc1` (single isomer, unassigned) [Example 255, 3-{(1S or R)-1-[3-(5-Ethoxypyrimidin-2-yl)phenyl]ethyl}-1-[1-(2-hydroxyethyl)-1H-pyrazol-4-yl]pyridazin-4(1H)-one] was run?
**A.** The IC50 was 100 to 1000 nM.

**Q.** For `COCCCOc1cnc(-c2cccc(Cc3nn(-c4cc(F)c(F)c(F)c4)ccc3=O)c2)nc1` [Example 324, 3-{3-[5-(3-methoxypropoxy)pyrimidin-2-yl]benzyl}-1-(3,4,5-trifluorophenyl)pyridazin-4(1H)-one], which IC50 is on record?
**A.** Its IC50 is under 100 nM.

**Q.** Which IC50 does the source give for `C=C(C)c1cnc(-c2cccc(Cc3nn(-c4cnn(C)c4)ccc3=O)c2)nc1` [Example 399, 1-(1-methyl-1H-pyrazol-4-yl)-3-{3-[5-(prop-1-en-2-yl)pyrimidin-2-yl]benzyl}pyridazin-4(1H)-one] here?
**A.** The IC50 was under 100 nM.

**Q.** How did the IC50 turn out when `CNC(=O)CCCn1cc(-n2ccc(=O)c(Cc3cccc(NC(=O)OCC(C)C)c3)n2)cn1` [Example 697, 2-methylpropyl {3-[(1-{1-[4-(methylamino)-4-oxobutyl]-1H-pyrazol-4-yl}-4-oxo-1,4-dihydropyridazin-3-yl)methyl]phenyl} carbamate] was run?
**A.** The IC50 was under 100 nM.

**Q.** How did the IC50 turn out when `Cn1cc(-n2ccc(=O)c(Cc3cccc(-c4ncc(C5CCCO5)cn4)c3)n2)cn1` (racemic) [Example 198, rac-1-(1-Methyl-1H-pyrazol-4-yl)-3-{3-[5-(tetrahydrofuran-2-yl)pyrimidin-2-yl]benzyl}pyridazin-4(1H)-one] was run?
**A.** The IC50 was under 100 nM.

**Q.** `CCCn1cc(-n2ccc(=O)c(Cc3cccc(NC(=O)OCCN4CCOCC4)c3)n2)cn1` [Example 117, 2-morpholin-4-ylethyl (3-{[4-oxo-1-(1-propyl-1H-pyrazol-4-yl)-1,4-dihydropyridazin-3-yl]methyl}phenyl)carbamate] was tested. Which IC50 did it give?
**A.** Its IC50 is under 100 nM.

**Q.** Which IC50 does the source give for `CN1CCN(CCCOC(=O)Nc2cccc(Cc3nn(-c4cc(F)c(F)c(F)c4)ccc3=O)c2)CC1` [Example 511, 3-(4-methylpiperazin-1-yl)propyl(3-{[4-oxo-1-(3,4,5-trifluorophenyl)-1,4-dihydropyridazin-3-yl]methyl}phenyl)carbamate] here?
**A.** The IC50 was under 100 nM.

**Q.** How did the IC50 turn out when `N#Cc1cccc(-n2ccc(=O)c(Cc3cccc(NC(=O)OCC4CCOCC4)c3)n2)c1` [Example 579, tetrahydro-2H-pyran-4-ylmethyl (3-{[1-(3-cyanophenyl)-4-oxo-1,4-dihydropyridazin-3-yl]methyl}phenyl)carbamate] was run?
**A.** Its IC50 is under 100 nM.
